The record followed here is US20080292580A1, “Treatment of Inflammatory Diseases” (UNIVERSITY COLLEGE LONDON HOSPITALS NHS FOUNDATION, priority 2004, published 2008).

This series deals with normal mice. Kind of series: Toxic effects of PEG-saline infusion in normal mice. Particulars: mouse, in vivo. As for the experimental part:
In this example, the toxic effects of high molecular weight polyethylene glycol at high concentrations were compared to the effects of low molecular weight polyethylene glycol at even higher concentrations.
Normal mice, which were not subjected to zymozan or lipopolysaccharide injections, were infused (25 ml/kg) with either PEG-200-saline solution at a PEG-200 concentration of 100 mg/ml or PEG-4000-saline solution at a PEG-4000 concentration of 30 mg/ml.

Take polyethylene glycol [PEG 200-saline]: the “survival of normal mice” value is “survived”.
